Source: US20250057832A1, “USE OF A CLASS OF 1,4-DIHYDRO-NAPHTHYRIDINE DERIVATIVES IN TREATMENT OF TUMORS” (NEURODAWN PHARMACEUTICAL CO., LTD., priority 2021, published 2025)
“Also recorded” adds a separate entry of the source.

Key:
[1] = test system: neural tumor cells and non-neural tumor systems; assay: Cell viability assay, summary over tumor cell lines (Example 2); format: cell-based; settings: neural and non-neural tumor cells of Table 3, 48 hours; read-out: IC50, range over tumor cell lines
Procedure: (§1) U87MG, T98G, U251, SK-N-SH, A-172 and HepG2 cells were adherently cultured in MEM+10% FBS+1% P/S medium and passaged at 1:3; CT26.WT cells were adherently cultured in RPMI-1640+10% FBS+1% P/S medium and passaged at 1:3; CHO-K1 was cultured adherently in Ham's F-12K+10% FBS+[…] medium and passaged at 1:3.
(§2) The above various cells were resuscitated and stably passaged twice. When the cell density reached above 85%, the cells were digested with 0.05% trypsin-EDTA for three minutes, resuspended, plated in a 96-well plate at the corresponding density, and cultured for 24 hours. The cells were treated with drugs at final concentrations of the culture system of 0.41 μM, 1.23 μM, 3.7 μM, 11.1 μM, 33.3 μM, and 100 μM. After 48 hours of drug treatment, cell viability was determined using CellCounting-Lite™ 2.0 kit. The plate was added with reagents at 100 µL/well according to the CellCounting-Lite™ 2.0 kit instructions, and shaken for 10 minutes. The luminescence value (LUM) was read on a multi-function plate reader, and the relative viability of the cells was calculated.
(§3) Relative viability of tumor cells V (%)=(LUM-LUMbackground)/(LUMnormal control−LUMbackground)×100%. LUMbackground was the background reading of the complete culture medium well added with the detection reagent. The half inhibitory concentration (IC50) was calculated using GraphPad Prism 8.0.1 statistical software.

T98G cells = assay: Vacuolation induction in T98G cells (Example 1); format: cell-based, human
Procedure: T98G cells were stably passaged twice. When the cell density reached more than 85%, the cells were digested with 0.05% trypsin-EDTA for 3 minutes, resuspended with the culture medium, and plated in a 12-well plate at a certain density, with each well system being 1 mL. The cells were cultured for 24 hours, and added with the compound solution prepared above to each well according to the grouping, so that the concentrations of the compounds in the culture system were respectively 5 μM, 10 μM, 20 μM, 40 μM, and 60 μM. An equal volume of DMSO was added as a control well.
After 6 hours of drug treatment, the plates were observed under a microscope with a 20× objective lens, and five fields of view were randomly selected for each well to take photos and record. If in the observed field of view, bright vacuoles with clear border appeared in the cell, and at least one of the following conditions was met: 1) a cell contained at least 1 vacuole with a diameter greater than 3 μm; 2) a cell contained 3 or more vacuoles with a diameter within the range of 0.5-3 μm, the cell was considered to be methuosis-positive cells.
Among them, CELL positive: the number of methuosis-positive cells; CELL normal: the number of cells with normal morphology

CHO-K1 [2] = assay: Vacuolation phenotype by S2 (Example 2); format: cell-based, hamster; settings: non-tumor cell line CHO-K1, 30 μM, 6 hours
Procedure: as §1
(§4) The cells used above were resuscitated and passaged twice stably. When the cell density reached above 85%, the cells were digested with 0.05% trypsin-EDTA for 3 minutes, resuspended with the culture medium, and plated into a 6-well plate at a certain density, with each well system being 2 mL. The cells were cultured for 24 hours, added with 2 μL of the above-prepared S2 solution (final DMSO concentration 0.1%) to each well according to the grouping, such that the S2 concentration in the cell culture system reached 30 μM.
(§5) After 6 hours of drug treatment, the plate was observed under a microscope with a 20× objective lens, and five fields of view were randomly selected for each well to take photos and record. […]

CT26.WT = assay: Vacuolation phenotype by S2 (Example 2); format: cell-based, mouse; settings: 30 μM, 6 hours
Procedure: as §1, §4, §5

HepG2 = assay: Cell viability assay (Example 2); format: cell-based; settings: Homo sapiens; HepG2, 48 hours
Procedure: as §1, §2, §3

[3] = test system: T98G subcutaneous transplantation tumor; assay: Human brain glioma T98G subcutaneous model in NOD SCID mice (Example 6); format: in vivo, NOD SCID mouse; settings: S2 3 mg/kg IV
Procedure: Human brain glioma T98G cells were cultured in vitro. The cells were cultured in EMEM medium added with 10% fetal calf serum, 100 U/mL penicillin and 100 µg/mL streptomycin, in a 37° C. 5% CO2 incubator. After the number of cells reached the required number, the cells were collected. 0.2 mL (10×10^6) of T98G tumor cells (PBS:Matrigel=1:1) were subcutaneously inoculated into the right back of each mouse. The mice were grouped and administered when the average tumor volume reached approximately 147 mm^3. […]
Tumor diameters were measured with vernier calipers twice a week, and tumors were weighed and photographed after the experiment.
1.5 Data Statistics The tumor volume was calculated as follows: V=0.5a×b^2, where a and b represent the long and short diameters of the tumor respectively.
The tumor inhibitory effect was evaluated by TGI (%) or relative tumor proliferation rate T/C (%).
The tumor inhibitory effect was calculated as TGI (%): TGI %=[1-(average tumor volume at the end of administration in a certain treatment group−average tumor volume at the beginning of administration in the treatment group)/(average tumor volume at the end of administration in the vehicle control group−average tumor volume in the vehicle control group at the beginning of treatment)]×100. […]

various tumor cells = assay: Vacuolation by S2, summary over tumor cells (FIG. 2); format: cell-based
Procedure: as §1, §4, §5

CHO-K1 [4] = assay: Cell viability assay (Example 2); format: cell-based, hamster; settings: non-tumor cell line CHO-K1, 48 hours
Procedure: as §1, §2, §3

With `CCOC(=O)C1=C(C)Nc2nc3c(c(N)c2C1c1ccccc1Cl)CC(C)(C)CC3` (centres unmarked) [Compound S2] the IC50 [1] was 4.7 to 14.3 µM, the “Rank of vacuolation-inducing activity among the derivatives” value (T98G cells) was “strongest vacuolation-inducing activity” and the “Induction of vacuolation in T98 cells” value (T98G cells; FIG. 1 and Table 1) was “can induce vacuolation”. The Induction of vacuolation (CHO-K1 [2]) was “could not induce vacuolation”, the Induction of vacuolation (CT26.WT) was “can also induce vacuolation” and the IC50 (HepG2) was 10.1 µM. The “Tumor volume growth vs vehicle (FIG. 13A-C)” value [3] was “significantly inhibited tumor volume growth; also recorded: inhibited the growth of T98 glioma”, the “Tumor weight at end of experiment vs control (FIG. 13D)” value [3] was “significantly lower than that in the control group; also recorded: reduced the volume and weight of solid tumors” and the “Induction of vacuolation (FIG. 2 legend)” value (various tumor cells) was “induced vacuolation”. The IC50 (CHO-K1 [4]; CHO-K1, 48 h) was > 100 µM and the IC50 (CHO-K1 [4]) was ~100 µM.
